Source: US9125913B2, “Bcl-2-selective apoptosis-inducing agents for the treatment of cancer and immune diseases” (AbbVie Inc., priority 2008, dated 2015)

system: GST-Bcl-2; test: TR-FRET binding assay, Bcl-2; details: TR-FRET Ki values
In short: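 Ki values come from Wang's competitive-binding equation applied to TR-FRET signal (excitation 340/35 nm; emission 520/525 nm F-Bak peptide, 495/510 nm Tb antibody). Protein, probe and antibody incubated with compound 3 h at room temperature; dilution series began at 50 μM as 2× stock in 10% DMSO.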

Row | Structure (SMILES) | Binding selectivity ratio (Bcl-XL Ki/Bcl-2 Ki)
1 | CC1(C)CCC(CN2CCN(c3ccc(C(=O)NS(=O)(=O)c4ccc(NCC5(N)CCOCC5)c([N+](=O)[O-])c4)c(Oc4ccc5[nH]ccc5c4)c3)CC2CO)=C(c2ccc(Cl)cc2)C1 (centres unmarked) [EXAMPLE 237, N-[(4-{[(4-aminotetrahydro-2H-pyran-4-yl)methyl]amino}-3-nitrophenyl)sulfonyl]-4-[4-{[2-(4-chlorophenyl)-4,4-dimethylcyclohex-1-en-1-yl]methyl}-3-(hydroxymethyl)piperazin-1-yl]-2-(1H-indol-5-yloxy)benzamide] | 668.3
2 | CC1(C)CCC(CN2CCN(c3ccc(C(=O)NS(=O)(=O)c4ccc(NC5CCN(CCCF)CC5)c([N+](=O)[O-])c4)c(Oc4ccc5[nH]ccc5c4)c3)CC2)=C(c2ccc(Cl)cc2)C1 [EXAMPLE 235, 4-(4-{[2-(4-chlorophenyl)-4,4-dimethylcyclohex-1-en-1-yl]methyl}piperazin-1-yl)-N-[(4-{[1-(3-fluoropropyl)piperidin-4-yl]amino}-3-nitrophenyl)sulfonyl]-2-(1H-indol-5-yloxy)benzamide] | 231.4
3 | CC(C1=C(c2ccc(Cl)cc2)CC(C)(C)CC1)N1CCN(c2ccc(C(=O)NS(=O)(=O)c3ccc(NCC4CCOCC4)c([N+](=O)[O-])c3)c(Oc3ccc4[nH]ccc4c3)c2)CC1 (centres unmarked) [EXAMPLE 253, 4-(4-{1-[2-(4-chlorophenyl)-4,4-dimethylcyclohex-1-en-1-yl]ethyl}piperazin-1-yl)-2-(1H-indol-5-yloxy)-N-({3-nitro-4-[(tetrahydro-2H-pyran-4-ylmethyl)amino]phenyl}sulfonyl)benzamide] | >4663.3
4 | CNc1ccc(S(=O)(=O)NC(=O)c2ccc(N3CCN(CC4=C(c5ccc(Cl)cc5)CC(C)(C)CC4)CC3)cc2Oc2ccc3[nH]ccc3c2)cc1[N+](=O)[O-] [EXAMPLE 245, 4-(4-{[2-(4-chlorophenyl)-4,4-dimethylcyclohex-1-en-1-yl]methyl}piperazin-1-yl)-2-(1H-indol-5-yloxy)-N-{[4-(methylamino)-3-nitrophenyl]sulfonyl}benzamide] | >408.2
5 | CC1(C)CCC(CN2CCN(c3ccc(C(=O)NS(=O)(=O)c4cnc(OC[C@@H]5CCN(CC(F)F)C5)c(Cl)c4)c(Oc4cccc5[nH]ncc45)c3)CC2)=C(c2ccc(Cl)cc2)C1 [EXAMPLE 445, N-[(5-chloro-6-{[(3R)-1-(2,2-difluoroethyl)pyrrolidin-3-yl]methoxy}pyridin-3-yl)sulfonyl]-4-(4-{[2-(4-chlorophenyl)-4,4-dimethylcyclohex-1-en-1-yl]methyl}piperazin-1-yl)-2-(1H-indazol-4-yloxy)benzamide] | 484.2
6 | CO[C@H]1CC[C@H](CNc2ccc(S(=O)(=O)NC(=O)c3ccc(N4CCN(CC5=C(c6ccc(Cl)cc6)CC(C)(C)CC5)CC4)cc3Oc3ccc4[nH]ccc4c3)cc2[N+](=O)[O-])CC1 [EXAMPLE 311, Trans-4-(4-{[2-(4-chlorophenyl)-4,4-dimethylcyclohex-1-en-1-yl]methyl}piperazin-1-yl)-2-(1H-indol-5-yloxy)-N-[(4-{[(4-methoxycyclohexyl)methyl]amino}-3-nitrophenyl)sulfonyl]benzamide] | >2538.5
7 | COCCNC(=O)c1ccc(S(=O)(=O)NC(=O)c2ccc(N3CCN(CC4=C(c5ccc(Cl)cc5)CC(C)(C)CC4)CC3)cc2Oc2ccc3[nH]ccc3c2)cc1 [EXAMPLE 332, 4-(4-{[2-(4-chlorophenyl)-4,4-dimethylcyclohex-1-en-1-yl]methyl}piperazin-1-yl)-2-(1H-indol-5-yloxy)-N-[(4-{[(2-methoxyethyl)amino]carbonyl}phenyl)sulfonyl]benzamide] | >52.5
8 | O=C(NS(=O)(=O)c1ccccc1OCCN1CCCCC1)c1ccc(N2CCN(Cc3ccccc3-c3ccc(Cl)cc3)CC2)cc1Oc1ccccc1 [Example 32, 4-{4-[(4′-chloro-1,1′-biphenyl-2-yl)methyl]piperazin-1-yl}-2-phenoxy-N-{[2-(2-piperidin-1-ylethoxy)phenyl]sulfonyl}benzamide] | >10.8
9 | CC1(C)CCC(CN2CCN(c3ccc(C(=O)NS(=O)(=O)c4ccc(OCC#CCN5CCOCC5)c([N+](=O)[O-])c4)c(Oc4ccc5[nH]ccc5c4)c3)CC2)=C(c2ccc(Cl)cc2)C1 [EXAMPLE 390, 4-(4-{[2-(4-chlorophenyl)-4,4-dimethylcyclohex-1-en-1-yl]methyl}piperazin-1-yl)-2-(1H-indol-5-yloxy)-N-({4-[(4-morpholin-4-ylbut-2-ynyl)oxy]-3-nitrophenyl}sulfonyl)benzamide] | 339.6
10 | COCCNc1ccc(S(=O)(=O)NC(=O)c2ccc(N3CCN(CC4=C(c5ccc(Cl)cc5)CC(C)(C)CC4)CC3)cc2Oc2cccc3[nH]ccc23)cc1[N+](=O)[O-] [EXAMPLE 239, 4-(4-{[2-(4-chlorophenyl)-4,4-dimethylcyclohex-1-en-1-yl]methyl}piperazin-1-yl)-2-(1H-indol-4-yloxy)-N-({4-[(2-methoxyethyl)amino]-3-nitrophenyl}sulfonyl)benzamide] | 430.9
11 | CN(C)CCOc1cccc(-c2ccc(Cl)cc2)c1CN1CCN(c2ccc(C(=O)NS(=O)(=O)c3ccc(NCC4CCOCC4)c(S(=O)(=O)C(F)(F)F)c3)c(Oc3ccccc3)c2)CC1 [Example 124, 4-[4-({4′-chloro-3-[2-(dimethylamino)ethoxy]-1,1′-biphenyl-2-yl}methyl)piperazin-1-yl]-2-phenoxy-N-({4-[(tetrahydro-2H-pyran-4-ylmethyl)amino]-3-[(trifluoromethyl)sulfonyl]phenyl}sulfonyl)benzamide] | 220.1
12 | CC1(C)CCC(CN2CCN(c3ccc(C(=O)NS(=O)(=O)c4ccc(NC[C@H]5CC[C@@H](O)CC5)c([N+](=O)[O-])c4)c(Oc4ccc5[nH]ccc5c4)c3)CC2)=C(c2ccc(Cl)cc2)C1 [EXAMPLE 312, Cis-4-(4-{[2-(4-chlorophenyl)-4,4-dimethylcyclohex-1-en-1-yl]methyl}piperazin-1-yl)-N-[(4-{[(4-hydroxycyclohexyl)methyl]amino}-3-nitrophenyl)sulfonyl]-2-(1H-indol-5-yloxy)benzamide] | >1941.2
13 | CC1(C)CCC(CN2CCN(c3ccc(C(=O)NS(=O)(=O)c4ccc(NN5CCN(CCO)CC5)c([N+](=O)[O-])c4)c(Oc4ccc5[nH]ccc5c4)c3)CC2)=C(c2ccc(Cl)cc2)C1 [EXAMPLE 233, 4-(4-{[2-(4-chlorophenyl)-4,4-dimethylcyclohex-1-en-1-yl]methyl}piperazin-1-yl)-N-[(4-{[4-(2-hydroxyethyl)piperazin-1-yl]amino}-3-nitrophenyl)sulfonyl]-2-(1H-indol-5-yloxy)benzamide] | >2714.3
14 | CC1(C)CCC(CN2CCN(c3ccc(C(=O)NS(=O)(=O)c4ccc(NC5CCN(Cc6nccs6)CC5)c([N+](=O)[O-])c4)c(Oc4ccc5[nH]ccc5c4)c3)CC2)=C(c2ccc(Cl)cc2)C1 [EXAMPLE 230, 4-(4-{[2-(4-chlorophenyl)-4,4-dimethylcyclohex-1-en-1-yl]methyl}piperazin-1-yl)-2-(1H-indol-5-yloxy)-N-[(3-nitro-4-{[1-(1,3-thiazol-2-ylmethyl)piperidin-4-yl]amino}phenyl)sulfonyl]benzamide] | >74.8
